Publication PMC6072878, “Brasilianoids A–F, New Meroterpenoids From the Sponge-Associated Fungus Penicillium brasilianum” (Frontiers in Chemistry, 2018)
Where two headings read alike, the source gives them in different places.

What was measured:
[1] = test system: NO production in LPS-induced RAW 264.7 macrophages; experiment: Inhibition of LPS induced NO production in RAW264.7 macrophages (Griess reagent); assay type: cell-based, mouse
Description: All compounds were assayed by measuring the inhibitory effects on NO production induced by LPS in mouse macrophage RAW 264.7 cells. The RAW 264.7 cells were seeded in each well of a 96-well plate at a concentration of 5 × 10^5 cells/ml in DMEM medium containing 10% fetal bovine serum, 2 mmol/l glutamine, 100 U/ml penicillin, and 100 μg/ml streptomycin. After incubation at 37°C in a humidified atmosphere of 5% CO2 air for 12 h, cells were treated with LPS (1 μg/ml) and compounds ([…], and compound was dissolved in DMSO to dilute until the final DMSO concentration <0.1%, v/v), then incubation for 24 h at 37°C. NO production was determined by measuring the quantity of nitrite in the culture medium by the Griess reagent. Aminoguanidine was selected as a positive control. A 50 μl of the supernatant of culture medium was mixed with 100 μl of the Griess reagent. Using nitrite to generate a standard curve, nitrite production was measured by a microplate reader at 540 nm. Cell viability was examined by the MTT method (Wu et al., [2016]). The compounds with inhibitory rate more than 50% at a dose of 50 μg/ml were further detected in the gradient concentrations to calculate IC50 values. […]
(§1) 7. Assay for inhibition toward nitric oxide production in RAW264.7 macrophages The experiment was conducted according to a literature procedure.1 Murine monocytic RAW264.7 cells grown in 96-well cell culture plates (2 × 10^5 cells/well) and pretreated with serial concentrations of the compounds 1‒8 for 30 min, followed by stimulation with LPS (1 μg/mL) under a humidified atmosphere with 5% CO2 at 37°C. After 24 h, the NO production of the supernatant was determined by adding the 100 μL of Griess reagent. Subsequently, the MTT
(§2) [3-(4,5-dimethylthiazol-2-yl)-2,5-diphenyltetrazolium bromide] reduction2 was used to evaluate the cell viability, and results were expressed as the mean value of triplicate determinations. The positive control was aminoguanidine.2 […]

[2] = Cytotoxic activity toward tumor cell line SMMC7721; assay type: cell-based; conditions: human, SMMC7721 tumor cells
[3] = Cytotoxic activity toward tumor cell line A549; assay type: cell-based; conditions: human, A549 tumor cells
[4] = Cell viability of RAW264.7 macrophages (MTT method); assay type: cell-based, mouse; conditions: mouse
Description: as §1, §2

[5] = Cytotoxic activity toward tumor cell line U937; assay type: cell-based; conditions: human, U937 tumor cells
[6] = test system: HBV virus in HepG2.2.15 cells; experiment: In vitro anti-HBV effects (HBV DNA, real time PCR); assay type: cell-based; conditions: 10 μM
Description: HepAD38 cells were cultured with DMEM in 48-well plate at 1 × 10^5 cells/well for 24 h, then treated with 10 μM of each compound for 72 h. After 4 days, the cells were washed with precooled PBS for 2 times. HBV progeny DNA of HepAD38 cells were extracted using QIAamp DNA Blood Mini kit (Biomiga) according to the manufacturer's instruction. Total DNA was reversely transcribed using PrimeScript RT reagent Kit (Takara, Dalian, China). PCR amplification was performed on an StepOne Plus real time PCR system (Applied Biosystems, Foster City, CA) using the SYBR Green Master Mix (Applied Biosystems, Foster City, CA). All experiments were performed in triplicate, and the relative levels of assayed HBV DNA were calculated with the delta–delta CT method using lamivudine as a positive control, and normalized to non-treated control. […]
8. Assay for in vitro anti-HBV effects
HepG2. 2. 15 cells were cultured with DMEM in 48-well plate at 1×10^5 cells/well for 24 h, then treated with 10 µM of compounds for 72 h. At d 4, these cells were washed 2 times with precooled PBS, and treated with 10 µM of compounds for 72 h.
HBV progeny DNA of HepG2. 2. 15 cells were extracted using QIAamp DNA Blood Mini kit (Biomiga) according to the manufacturer's instruction. Then total DNA was reverse transcribed using PrimeScript RT reagent Kit (Takara, Dalian, China). The primers were designed and synthesized by Takara, and the sequences of the primers […]
PCR amplification was performed on an StepOne Plus real time PCR system (Applied Biosystems, Foster City, CA) using the SYBR Green Master Mix (Applied Biosystems, Foster City, CA). All experiments were performed in triplicate, and the relative levels of assayed HBV DNA were calculated with the […]
delta‒delta CT method using lamivudine expressions as positive control, and normalized to non-treated control. […]
(Takara, Dalian, China). The primers were designed and synthesized by Takara, the […]
performed on an StepOne Plus real time PCR system (Applied Biosystems, Foster City, CA) using the SYBR Green Master Mix (Applied Biosystems, Foster City, CA). […]

[7] = test system: HaCaT cells; experiment: Protection against UVB-induced cell damage in HaCaT cells (MTT assay); assay type: cell-based; conditions: HaCaT cells, UVB 30 mJ/cm^2, 20 μM, 24 h; UVB alone 70% of normal group
Description: HaCaT cells were seeded at 5 × 10^5 cells per well in 6-well plates and incubated under starvation conditions for 24 h using serum-free MEM. HaCaT cells were exposed to UVB irradiation (UVB lamp: SUV-1000, Sigma-China) at a dose of 30 mJ/cm^2. After UVB irradiation, DMEM medium containing 1 (20 μM) or epigallocatechin gallate (20 μM) was added and the cells were incubated for 24 h, and then the MTT assay was performed.

[8] = RAW264.7 macrophages, RAW264.7, MTT, Table 3, read-out: CC50 (μM) Cytotoxicity
[9] = RAW264.7 macrophages, Table S9 of the supplement, read-out: CC50 (M), 50% cytotoxic concentration
[10] = Mus musculus, RAW264.7, 24 h, LPS 1 μg/ml, 24 h
[11] = Mus musculus, RAW264.7, Table S9 of the supplement, read-out: IC50 (M), 50% inhibitory concentration
[12] = RAW264.7, MTT, Table 3, read-out: CC50 (μM) Cytotoxicity
[13] = Table S9 of the supplement, read-out: CC50 (M), 50% cytotoxic concentration
[14] = Mus musculus, RAW264.7, read-out: IC50 (M), 50% inhibitory concentration

| Compound | IC50 [2] [µM] | IC50 [3] [µM] | CC50 at 24 h [4, 8] [µM] | CC50 at 24 h [4, 9] [µM] | inhibition at 50 µg/mL [1, 10] [%] | IC50 [5] [µM] | IC50 [1, 11] [µM] | inhibitory rate of DNA expression of the HBV virus [6] [%] | also measured |
| --- | --- | --- | --- | --- | --- | --- | --- | --- | --- |
| N=C(N)NN [Aminoguanidine, reference compound] | – | – | – | – | – | – | – | – | IC50 ([1]; LPS 1 μg/ml, 24 h, Table 3, read-out: IC50 (μM) NO): 7.62 ± 0.08 µM |
| C=C1C2(C)CC3C4(C)C=CC(=O)OC(C)(C)C4CCC3(C)C13C(=O)OC(C)C3(O)C2=O [Compound 2, (5aS, 5bS, 7R, 8aR, 9S, 11aR, 11bS, 13aS)-8a-hydroxy-1,1,5a, 7,9, 11b-hexamethyl-14-methylene-5a, 5b, 6,7,8a, 9, 11b, 12, 13, 13a-decahydro-1H, 11H-7,11a-methanofuro[3″,4″:3′,4′]cyclohepta[1′,2′:3,4]benzo[1,2-c]oxepine-3,8,11-trione] | > 10 | > 10 | > 100 | > 50 | 58 | > 10 | – | – | inhibition toward NO production (in words) ([1]; LPS-induced RAW 264.7 macrophages): moderate inhibition; IC50 ([1]; Mus musculus, RAW264.7, 24 h, LPS 1 μg/ml, 24 h, Table 3, read-out: IC50 (μM) NO): 37.7 ± 5.25 µM |
| C=C1[C@@]2(C)C[C@H]3[C@](C)(CCC(=O)OC)[C@@H](C(C)(C)O)CC[C@]3(C)[C@@]13C(=O)O[C@H](C)[C@@]3(O)C2=O [Compound 4, methyl 3-((3R, 3aR, 5R, 6aS, 7S, 8S, 10aS, 10bR)-3a-hydroxy-8-(2-hydroxypropan-2-yl)-3,5,7,10a-tetramethyl-11-methylene-1,4-dioxodecahydro-1H,3H-5,10b-methanobenzo[3,4]cyclohepta[1,2-c]furan-7-yl)propanoate] | > 10 | > 10 | > 100 | > 50 | 32 | > 10 | > 50 | 15 | – |
| C=C1[C@@]2(C)C[C@H]3[C@](C)(CCC(=O)OC)[C@@H](C(C)(C)O)CC[C@]3(C)[C@@]13C(=O)O[C@@H](C)[C@@]3(O)C2=O [Compound 5, methyl 3-((3S, 3aR, 5R, 6aS, 7S, 8S, 10aS, 10bR)-3a-hydroxy-8-(2-hydroxypropan-2-yl)-3,5,7,10a-tetramethyl-11-methylene-1,4-dioxodecahydro-1H,3H-5,10b-methanobenzo[3,4]cyclohepta[1,2-c]furan-7-yl)propanoate] | > 10 | > 10 | > 100 | > 50 | 36 | > 10 | > 50 | 10 | – |
| C=C1C2(C)CC3C4(C)C(O)C5CC(C)(OC5=O)C4CCC3(C)C13C(=O)OC(C)C3(O)C2=O [Compound 6, (1R, 4S, 5R, 5aS, 5bR, 7R, 8aR, 9R, 11aR, 11bS, 13aS)-5,8a-dihydroxy-1,5a,7,9,11b-pentamethyl-14-methylenedodecahydro-1H,11H-1,4:7,11a-dimethanofuro[3″,4″:3′,4′]cyclohepta[1′,2′:3,4]benzo[1,2-c]oxepine-3,8,11-trione] | > 10 | > 10 | – | – | – | > 10 | – | – | CC50 at 24 h [4, 12]: > 100 µM; CC50 at 24 h [4, 13]: > 50 µM; IC50 [1, 14]: > 50 µM |
| C=C1[C@@]2(C)C[C@H]3[C@](C)(CCC(=O)OC)[C@@H](C(C)(C)O)CC[C@]3(C)[C@]1(C(=O)OC)C(=O)[C@@](C)(O)C2=O [Compound 7, preaustinoid D] | > 10 | > 10 | > 100 | > 50 | 28 | > 10 | > 50 | – | – |
| C=C1[C@@]2(C)C[C@H]3[C@]4(C)C=CC(=O)OC(C)(C)[C@H]4CC[C@]3(C)[C@]1(C(=O)OC)C(=O)[C@@](C)(O)C2=O [Compound 8, preaustinoid A2] | > 10 | > 10 | – | – | – | > 10 | – | – | CC50 at 24 h [4, 12]: > 100 µM; CC50 at 24 h [4, 13]: > 50 µM; IC50 [1, 14]: > 50 µM |
| O=C(O[C@@H]1Cc2c(O)cc(O)cc2O[C@@H]1c1cc(O)c(O)c(O)c1)c1cc(O)c(O)c(O)c1 [epigallocatechin gallate, reference compound] | – | – | – | – | – | – | – | – | cell viability after UVB irradiation [7]: 75% |
| Nc1ccn([C@@H]2CS[C@H](CO)O2)c(=O)n1 [lamivudine, reference compound] | – | – | – | – | – | – | – | 75 | – |
